Measured values from patent US4746509A, “Transdermal medicament” (Rhone-Poulenc Sante, priority 1983, dated 1988).
Counter-ions that a name gives are not always drawn.

Assay: Solubility in water
Format: physicochemical

solubility in water: soluble in water
SMILES: CCCC(=O)Nc1ccc(OCC(O)CNC(C)C)c(C(C)=O)c1 (stereo not shown) [acebutolol hydrochloride]
